Key:
[1] = system: NIH 3T3-D1HD3 cells; test: Chemotaxis assay, NIH 3T3-D1HD3 cells; assay type: cell-based, mouse
Method: (§1) Chemotaxis assay was performed as described (Degryse et al., 1999, 2001a, 2001b) with modified Boyden chambers. Filters (5 μm pore size, Neuro Probe, Gaithersburg, Md.) were treated with collagen I (100 μg/ml) and fibronectin (10 μg/ml, Roche).≈40-50,000 cells in serum-free DMEM were added to the upper well and the chemoattractants tested added to the lower well. When present, antibodies, or inhibitors were added in both wells. After overnight migration at 37° C., cells remaining on the upper surface of filters were scraped off and filters were fixed in methanol and stained in a solution of 10% (w/v) crystal violet in 20% (v/v) methanol. The experiments were performed at least twice in triplicate and the results, expressed as fold over control, are the mean ±SD of the number of cells counted in ten high power fields per filter. Random cell migration, i.e. migration in the absence of chemoattractant, was given the arbitrary value of 100%.

[2] = system: LB6 clone 19 cells; test: 125I-VN cell binding, LB6 clone 19; design: species or system mouse; conditions: 125I-VN 0.5 nM, on ice 90 minutes
Method: (§2) VN was iodinated using Iodogen (Pierce Chemical Co.) at a specific activity of 30-60×10^6 cpm/mg. Briefly, 10 μg of VN dissolved in 0.1 M tris pH 7.6, 0.1% (v/v) Tween 80, were incubated with 0.5 μCi ^125Iodine for 15 minutes at room temperature, in a volume of 100 μl. The reaction was stopped by adding 1 ml of stop/elution buffer, 0.1 M tris pH 8.1, 0.1% (v/v) Chaps and 50 μl of N-acetyl tyrosine (10 mg/ml in 0.1 M tris pH 7.4). Labeled VN was separated from unbound ^125Iodine by gel chromatography in PD-10 column (Pharmacia) in the stop/elution buffer.
(§3) Cells were seeded in 96-well culture dishes treated overnight with 1.5% gelatin in PBS pH 7.4, grown to confluence in DMEM plus 10% FCS, then serum-starved for 24 hours in DMEM. Total binding was determined by incubating the cells on ice for 90 minutes in binding buffer (DMEM containing 0.1% (w/v) BSA and 10 mM Hepes pH 7.4) plus 0.5 nM ^125I-VN. Nonspecific binding was measured by competition with a 100 fold excess of unlabeled VN. At the end of the incubation time, the cells were washed 3 times with ice-cold binding buffer and once with ice-cold PBS, then lysed in a solution of 1% SDS, 1% Triton X-100 and the associated radioactivity counted. Cell number was determined in 6 wells per lines cultured in parallel, and the results were standardized as cpm/10^5 cells.

[3] = system: LB6-D1HD3 cells; test: Chemotaxis assay, LB6-D1HD3 cells (uPAR lacking domain 2); assay type: cell-based, mouse
Method: as §1

[4] = system: LB6-D1D2 cells; test: Chemotaxis assay, LB6-D1D2 cells (uPAR lacking domain 3); assay type: cell-based, mouse
Method: as §1

[5] = system: Stat1; test: Immunofluorescence microscopy, Stat1 distribution; assay type: cell-based, rat; conditions: RSMC, 30 minutes at 37° C., peptide 1 pM or VN 1 μg/ml
Method: (§4) As previously described (Degryse et al., 1999; 2004) 15,000-25,000 cells (20-40% confluence), were seeded on glass coverslips in 2 cm^2 well, cultured for 24 hours in DMEM plus 10% FCS, washed with PBS and cultured for another 24 hours without FCS. After stimulation, RSMC were fixed for 20 min at RT with 3% paraformaldehyde, 2% sucrose in PBS pH 7.5, washed 3 times with PBS-BSA 0.2%, permeabilized with 20 mM hepes pH 7.4, 300 mM saccharose, 50 mM NaCl, 3 mM MgCl2, 0.5% (v/v) Triton X-100 for 3 min at 4° C., and washed 3 times with PBS-BSA 0.2%. RSMC were incubated in PBS-BSA 2% for 15 min at 37° C., then with anti-Stat1 primary antibodies for 30 min at 37° C., washed 3 times with PBS-BSA 0.2%, and further incubated with PBS-BSA 2% for 15 min at 37° C. Cells were stained with the secondary TRITC-antibody and with FITC-phalloidin for visualization of filamentous actin, for 30 min at 37° C. DAPI (4′,6-diamidino-2-phenylindole, Roche) was used to label the nucleus. Finally, after 3 washes with PBS-BSA 0.2%, one with distilled water, coverslips were mounted with 20% (w/v) Mowiol. Fluorescence Photographs were taken with a Zeiss Axiophot microscope
To quantify the activation of Stat1, random pictures were taken and nuclei positively stained for Stat1 were counted and expressed in percent.

[6] = system: NIH 3T3-uPAR cells; test: Chemotaxis assay, NIH 3T3-uPAR cells; assay type: cell-based, mouse; conditions: VN 1 μg/ml
Method: as §1

[7] = system: HEK-293-uPAR cells; test: Chemotaxis assay, HEK-293-uPAR cells; assay type: cell-based, human
Method: as §1

[8] = system: human HT1080 fibrosarcoma cells; test: Matrigel invasion assay; assay type: cell-based; conditions: substance alone, 24 hours at 37° C.
[9] = system: NIH 3T3 cells; test: Chemotaxis assay, NIH 3T3 cells; assay type: cell-based, mouse; conditions: NIH 3T3, VN 1 μg/ml
Method: as §1

[10] = system: LB6 cells; test: Chemotaxis assay, modified Boyden chambers, LB6 cells; assay type: cell-based, mouse
Method: as §1

[11] = system: LB6-D1D2 cells; test: 125I-VN cell binding, LB6-D1D2; design: species or system mouse; conditions: 125I-VN 0.5 nM, on ice 90 minutes
Method: as §2, §3

[12] = system: LB6 clone 19 cells; test: Chemotaxis assay, LB6 clone 19 cells (wild-type human uPAR); assay type: cell-based, mouse; conditions: VN 5 μg/ml
Method: as §1

[13] = system: HEK-293 cells; test: Chemotaxis assay, HEK-293 cells; assay type: cell-based, human; conditions: HEK-293, VN 1 μg/ml
Method: as §1

[14] = system: LB6-D1HD3 cells; test: 125I-VN cell binding, LB6-D1HD3; design: species or system mouse; conditions: 125I-VN 0.5 nM, on ice 90 minutes
Method: as §2, §3

[15] = system: RSMC; test: Immunofluorescence microscopy, actin cytoskeleton and cell morphology; assay type: cell-based, rat; conditions: 30 minutes at 37° C., peptide 1 pM or VN 1 μg/ml
Method: as §4

## VN: vitronectin purified from human plasma
[1]; NIH 3T3-D1HD3, VN 1 μg/ml
  VN-dependent cell migration: 100 ± 4.0 % of control
[1]; NIH3T3 cells transfected with D1HD3-uPAR, even at 10 μg/ml
  stimulation of chemotaxis: failed to stimulate
[2]
  VN binding to cells: bound
[3]; LB6-D1HD3, VN 5 μg/ml
  VN-dependent cell migration: 102 ± 5.0 % of control
[3]; LB6 cells transfected with D1HD3-uPAR, even at 10 μg/ml
  stimulation of chemotaxis: failed to stimulate
[4]; LB6-D1D2, VN 5 μg/ml
  VN-dependent cell migration: 280 ± 6.0 % of control
[4]; LB6-D1D2 cells, at 1 μg/ml
  maximal stimulation of chemotaxis: about four-fold
[5]
  Stat1 activation and translocation into the nucleus: reproduced this effect on Stat1 localization
[6]
  VN-dependent cell migration: 397 ± 11.1 % of control
[7]
  chemotactic effect of VN in HEK-293-uPAR relative to untransfected HEK-293 cells: 2 fold
[7]; HEK-293-uPAR, VN 1 μg/ml
  VN-dependent cell migration: 394.3 % of control
  cell migration: 417.25 ± 4.64 % of control
[8]
  stimulation of Matrigel invasiveness of HT1080 cells: stimulate
[9]
  VN-dependent cell migration: 222.7 ± 4.8 % of control
[10]; LB6 cells, VN 5 μg/ml
  VN-dependent cell migration: 274 ± 3.8 % of control
[10]; untransfected parental LB6 cells
  stimulation of chemotaxis: 2.5 fold
[11]
  VN binding to cells: poorly
[12]; LB6 clone 19, wild-type uPAR
  VN-dependent cell migration: 906 ± 22.8 % of control
[12]
  enhancement of VN-directed cell migration of LB6 clone 19 compared to untransfected LB6 cells: 3.3 fold
[13]
  VN-dependent cell migration: 199.1 % of control
  cell migration: 210.84 ± 26.95 % of control
[14]
  VN binding to cells: poorly
[15]
  cell morphology and actin cytoskeleton organization: induced similar changes
